# What was measured:
# [1] = molecular target: Safetyscreen44 off target panel (Homo sapiens, UniProt P04150)
# [2] = molecular target: Safetyscreen44 off target panel (Homo sapiens, UniProt P06239)
# [3] = molecular target: Safetyscreen44 off target panel (Homo sapiens, UniProt P08172)
# [4] = molecular target: Safetyscreen44 off target panel (Homo sapiens, UniProt P08588)
# [5] = molecular target: Safetyscreen44 off target panel (Homo sapiens, UniProt P08908)
# [6] = molecular target: Safetyscreen44 off target panel (Homo sapiens, UniProt P10275)
# Chain of Safetyscreen44 off target panel (Homo sapiens, UniProt P10275) (P10275 whole entry): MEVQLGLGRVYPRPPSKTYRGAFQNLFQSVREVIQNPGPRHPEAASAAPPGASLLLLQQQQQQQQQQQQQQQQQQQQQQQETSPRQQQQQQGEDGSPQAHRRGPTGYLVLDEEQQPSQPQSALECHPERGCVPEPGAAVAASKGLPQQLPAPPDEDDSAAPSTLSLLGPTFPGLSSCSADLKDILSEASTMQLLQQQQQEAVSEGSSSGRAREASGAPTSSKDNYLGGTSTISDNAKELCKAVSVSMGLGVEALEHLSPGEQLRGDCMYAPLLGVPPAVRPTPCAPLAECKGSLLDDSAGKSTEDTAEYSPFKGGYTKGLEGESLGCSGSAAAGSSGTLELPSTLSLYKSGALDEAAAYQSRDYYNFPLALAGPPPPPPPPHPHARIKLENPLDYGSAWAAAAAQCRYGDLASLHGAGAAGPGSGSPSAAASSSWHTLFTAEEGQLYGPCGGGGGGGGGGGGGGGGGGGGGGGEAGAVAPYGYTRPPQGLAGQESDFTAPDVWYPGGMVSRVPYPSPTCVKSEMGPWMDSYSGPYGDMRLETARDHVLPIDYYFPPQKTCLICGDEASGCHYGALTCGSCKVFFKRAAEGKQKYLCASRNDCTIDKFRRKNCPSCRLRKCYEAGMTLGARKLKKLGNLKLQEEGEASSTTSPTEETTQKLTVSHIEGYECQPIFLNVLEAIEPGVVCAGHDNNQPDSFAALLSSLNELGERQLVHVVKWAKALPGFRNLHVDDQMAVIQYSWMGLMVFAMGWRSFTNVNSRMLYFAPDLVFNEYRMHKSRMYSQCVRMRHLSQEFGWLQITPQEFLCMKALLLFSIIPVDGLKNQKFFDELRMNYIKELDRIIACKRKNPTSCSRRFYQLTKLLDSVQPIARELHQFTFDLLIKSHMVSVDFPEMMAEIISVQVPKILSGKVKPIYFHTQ
# [7] = molecular target: Safetyscreen44 off target panel (Homo sapiens, UniProt P11229)
# [8] = molecular target: Safetyscreen44 off target panel (Homo sapiens, UniProt P20309)
# [9] = molecular target: Safetyscreen44 off target panel (Homo sapiens, UniProt P21554)
# Chain of Safetyscreen44 off target panel (Homo sapiens, UniProt P21554) (P21554 whole entry): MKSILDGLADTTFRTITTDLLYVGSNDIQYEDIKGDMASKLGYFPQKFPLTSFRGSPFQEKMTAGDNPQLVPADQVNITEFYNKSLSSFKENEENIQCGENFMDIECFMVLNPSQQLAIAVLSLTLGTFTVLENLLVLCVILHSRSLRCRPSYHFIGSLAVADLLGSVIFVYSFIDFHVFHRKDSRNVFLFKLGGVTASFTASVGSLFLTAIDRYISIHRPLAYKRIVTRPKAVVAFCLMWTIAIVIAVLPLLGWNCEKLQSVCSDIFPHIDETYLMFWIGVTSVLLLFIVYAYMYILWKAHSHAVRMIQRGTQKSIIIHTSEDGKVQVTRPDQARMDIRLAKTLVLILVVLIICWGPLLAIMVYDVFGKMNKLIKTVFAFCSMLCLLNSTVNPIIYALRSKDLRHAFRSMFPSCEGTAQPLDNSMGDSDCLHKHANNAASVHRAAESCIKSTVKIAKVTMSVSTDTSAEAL
# [10] = molecular target: Safetyscreen44 off target panel (Homo sapiens, UniProt P22303)
# [11] = molecular target: Safetyscreen44 off target panel (Homo sapiens, UniProt P23219)
# [12] = molecular target: Safetyscreen44 off target panel (Homo sapiens, UniProt P23975)
# [13] = molecular target: Safetyscreen44 off target panel (Homo sapiens, UniProt P25021)
# Chain of Safetyscreen44 off target panel (Homo sapiens, UniProt P25021) (P25021 whole entry): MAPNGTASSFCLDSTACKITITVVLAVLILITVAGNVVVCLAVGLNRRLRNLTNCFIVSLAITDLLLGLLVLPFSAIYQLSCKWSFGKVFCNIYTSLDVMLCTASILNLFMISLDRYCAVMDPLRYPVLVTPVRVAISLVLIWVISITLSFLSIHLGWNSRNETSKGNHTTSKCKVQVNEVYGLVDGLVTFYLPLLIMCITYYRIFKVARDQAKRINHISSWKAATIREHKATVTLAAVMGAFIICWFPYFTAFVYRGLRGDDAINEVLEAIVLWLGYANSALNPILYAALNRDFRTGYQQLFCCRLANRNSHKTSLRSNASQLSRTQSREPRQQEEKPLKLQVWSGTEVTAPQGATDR
# [14] = molecular target: Safetyscreen44 off target panel (Homo sapiens, UniProt P25101)
# Chain of Safetyscreen44 off target panel (Homo sapiens, UniProt P25101) (P25101 21-427): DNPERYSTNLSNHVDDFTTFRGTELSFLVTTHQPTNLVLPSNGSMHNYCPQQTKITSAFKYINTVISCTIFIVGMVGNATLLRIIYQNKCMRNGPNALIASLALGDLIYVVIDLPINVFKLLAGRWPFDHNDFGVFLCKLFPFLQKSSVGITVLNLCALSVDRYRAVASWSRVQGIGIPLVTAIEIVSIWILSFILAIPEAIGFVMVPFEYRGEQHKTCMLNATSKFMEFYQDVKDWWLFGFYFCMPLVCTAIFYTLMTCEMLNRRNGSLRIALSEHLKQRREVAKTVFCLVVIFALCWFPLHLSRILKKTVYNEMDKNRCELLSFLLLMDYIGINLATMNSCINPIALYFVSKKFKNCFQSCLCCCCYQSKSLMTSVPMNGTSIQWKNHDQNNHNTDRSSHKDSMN
# [15] = molecular target: Safetyscreen44 off target panel (Homo sapiens, UniProt P28223)
# [16] = molecular target: Safetyscreen44 off target panel (Homo sapiens, UniProt P32238)
# Chain of Safetyscreen44 off target panel (Homo sapiens, UniProt P32238) (P32238 whole entry): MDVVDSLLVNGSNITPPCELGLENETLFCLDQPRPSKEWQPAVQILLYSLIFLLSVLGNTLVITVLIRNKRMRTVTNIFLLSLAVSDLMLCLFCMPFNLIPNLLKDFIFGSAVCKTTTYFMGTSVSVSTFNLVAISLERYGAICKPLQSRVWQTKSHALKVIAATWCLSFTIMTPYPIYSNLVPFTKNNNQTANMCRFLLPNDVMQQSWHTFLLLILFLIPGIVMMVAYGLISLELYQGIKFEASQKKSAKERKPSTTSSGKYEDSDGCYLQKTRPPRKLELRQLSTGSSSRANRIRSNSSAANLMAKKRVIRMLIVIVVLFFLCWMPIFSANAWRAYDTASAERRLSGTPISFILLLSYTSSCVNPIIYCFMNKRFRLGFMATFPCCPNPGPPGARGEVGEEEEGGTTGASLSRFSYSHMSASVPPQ
# [17] = molecular target: Safetyscreen44 off target panel (Homo sapiens, UniProt P35354)
# Chain of Safetyscreen44 off target panel (Homo sapiens, UniProt P35354) (P35354 18-604): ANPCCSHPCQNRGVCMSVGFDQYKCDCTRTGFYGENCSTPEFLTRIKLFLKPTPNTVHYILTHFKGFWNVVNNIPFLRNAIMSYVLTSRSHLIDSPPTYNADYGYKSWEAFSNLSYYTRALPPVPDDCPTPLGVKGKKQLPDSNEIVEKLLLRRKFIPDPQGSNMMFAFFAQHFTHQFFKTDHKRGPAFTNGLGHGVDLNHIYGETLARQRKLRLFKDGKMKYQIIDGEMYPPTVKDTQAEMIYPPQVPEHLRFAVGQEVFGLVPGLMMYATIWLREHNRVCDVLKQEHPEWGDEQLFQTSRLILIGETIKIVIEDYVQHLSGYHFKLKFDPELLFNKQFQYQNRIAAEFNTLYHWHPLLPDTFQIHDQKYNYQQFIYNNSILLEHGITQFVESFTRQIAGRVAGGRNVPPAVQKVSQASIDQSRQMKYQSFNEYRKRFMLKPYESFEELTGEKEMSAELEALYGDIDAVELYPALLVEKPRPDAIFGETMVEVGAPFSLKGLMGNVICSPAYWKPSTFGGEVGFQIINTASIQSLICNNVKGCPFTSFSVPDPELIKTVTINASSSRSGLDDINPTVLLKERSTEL
# [18] = molecular target: Safetyscreen44 off target panel (Homo sapiens, UniProt P35367)
# [19] = molecular target: Safetyscreen44 off target panel (Homo sapiens, UniProt P35372)
# [20] = molecular target: Safetyscreen44 off target panel (Homo sapiens, UniProt P37288)
# [21] = molecular target: Safetyscreen44 off target panel (Homo sapiens, UniProt P41143)
# [22] = molecular target: Safetyscreen44 off target panel (Homo sapiens, UniProt P41595)
# [23] = molecular target: Safetyscreen44 off target panel (Homo sapiens, UniProt P43681)
# Chain of Safetyscreen44 off target panel (Homo sapiens, UniProt P43681) (P43681 27-627): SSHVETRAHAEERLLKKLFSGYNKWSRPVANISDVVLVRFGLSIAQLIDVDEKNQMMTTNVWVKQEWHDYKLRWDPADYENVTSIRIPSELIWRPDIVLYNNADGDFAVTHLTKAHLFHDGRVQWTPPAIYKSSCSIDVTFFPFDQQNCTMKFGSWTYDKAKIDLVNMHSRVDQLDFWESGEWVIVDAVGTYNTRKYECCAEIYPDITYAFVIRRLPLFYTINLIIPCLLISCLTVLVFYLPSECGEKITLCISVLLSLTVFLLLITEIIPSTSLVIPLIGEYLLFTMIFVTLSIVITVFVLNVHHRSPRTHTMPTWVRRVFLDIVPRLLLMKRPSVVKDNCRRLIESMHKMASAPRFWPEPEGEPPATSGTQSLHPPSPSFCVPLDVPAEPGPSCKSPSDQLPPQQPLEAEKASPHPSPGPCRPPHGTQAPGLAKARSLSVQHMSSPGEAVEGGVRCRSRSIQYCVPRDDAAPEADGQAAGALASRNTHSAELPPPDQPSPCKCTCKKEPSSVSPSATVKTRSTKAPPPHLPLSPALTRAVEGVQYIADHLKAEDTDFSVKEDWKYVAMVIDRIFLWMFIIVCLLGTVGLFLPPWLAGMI
# [24] = molecular target: Safetyscreen44 off target panel (Homo sapiens, UniProt P46098)
# [25] = molecular target: Safetyscreen44 off target panel (Homo sapiens, UniProt Q01959)
# [26] = molecular target: Safetyscreen44 off target panel (Rattus norvegicus, UniProt P21396)
# [27] = molecular target: Safetyscreen44 off target panel (Rattus norvegicus, UniProt P34975)
# [28] = system: Safetyscreen44 off target panel
# CYP1A (printed CYPiA) = experiment: in vitro; conditions: human, microsomes, % inhibition, CYPiA inhibition (HLM, phenacetin substrate)
# CYP2B6 = CYP2B6 (Homo sapiens, UniProt P20813); experiment: in vitro; conditions: microsomes, % inhibition, CYP2B6 inhibition (HLM, bupropion substrate)
# CYP2C19 = CYP2C19 (Homo sapiens, UniProt P33261); experiment: in vitro; conditions: microsomes, % inhibition, CYP2C19 inhibition (HLM, omeprazole substrate)
# CYP2C8 = CYP2C8 (Homo sapiens, UniProt P10632); experiment: in vitro; conditions: microsomes, % inhibition, CYP2C8 inhibition (HLM, amodiaquine substrate)
# CYP2C9 = CYP2C9 (Homo sapiens, UniProt P11712); experiment: in vitro; conditions: microsomes, % inhibition, CYP2C9 inhibition (HLM, diclofenac substrate)
# Chain of CYP2C9 (P11712 whole entry): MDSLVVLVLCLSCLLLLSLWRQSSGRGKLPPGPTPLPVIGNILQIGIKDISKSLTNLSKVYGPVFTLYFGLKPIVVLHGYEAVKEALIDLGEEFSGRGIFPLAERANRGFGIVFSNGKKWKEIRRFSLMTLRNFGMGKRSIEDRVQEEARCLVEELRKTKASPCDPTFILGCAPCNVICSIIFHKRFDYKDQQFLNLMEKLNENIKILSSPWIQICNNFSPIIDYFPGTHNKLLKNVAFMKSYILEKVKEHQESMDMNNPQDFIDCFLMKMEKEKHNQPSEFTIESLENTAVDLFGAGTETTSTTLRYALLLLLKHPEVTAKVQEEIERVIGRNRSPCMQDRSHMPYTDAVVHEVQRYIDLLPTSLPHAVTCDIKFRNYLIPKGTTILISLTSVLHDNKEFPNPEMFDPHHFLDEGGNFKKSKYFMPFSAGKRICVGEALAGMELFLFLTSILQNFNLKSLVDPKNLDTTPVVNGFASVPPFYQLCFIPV
# CYP2D6 = CYP2D6 (Homo sapiens, UniProt P10635); experiment: in vitro; conditions: microsomes, % inhibition, CYP2D6 inhibition (HLM, dextromethorphan substrate)
# CYP3A = experiment: in vitro; conditions: human, microsomes, % inhibition
# EC12923 = experiment: MIC, microdilution broth method; format: cell-based
# Chain of Safetyscreen44 off target panel (Homo sapiens, UniProt P08172) (P08172 whole entry): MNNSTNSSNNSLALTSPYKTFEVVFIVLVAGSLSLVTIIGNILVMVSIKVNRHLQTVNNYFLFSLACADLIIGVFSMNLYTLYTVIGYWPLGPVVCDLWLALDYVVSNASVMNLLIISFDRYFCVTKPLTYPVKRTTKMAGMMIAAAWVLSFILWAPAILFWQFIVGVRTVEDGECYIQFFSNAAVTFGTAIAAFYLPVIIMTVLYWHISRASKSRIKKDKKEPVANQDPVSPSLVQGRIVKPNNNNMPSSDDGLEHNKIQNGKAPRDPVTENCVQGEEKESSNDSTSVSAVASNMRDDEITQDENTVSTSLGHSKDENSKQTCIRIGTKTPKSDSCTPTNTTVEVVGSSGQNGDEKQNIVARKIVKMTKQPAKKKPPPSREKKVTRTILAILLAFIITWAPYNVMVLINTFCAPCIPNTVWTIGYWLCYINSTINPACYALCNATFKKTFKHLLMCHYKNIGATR
structure (smiles),measurement,setting,value
C[C@H]1COc2c(N3CC[C@@H](Nc4ncccn4)C3)c(F)cc3c(=O)c(C(=O)O)cn1c23 [KSN-82-L22],"% inhibition, GR (h) (agonist radioligand)",[1],3.456%
same,"% inhibition, Lck kinase (h)",[2],−2.891%
same,"% inhibition, M2 (h) (antagonist radioligand)",[3],1.066%
same,"% inhibition, beta 1 (h) (agonist radioligand)",[4],1.921%
same,"% inhibition, 5-HT1A(h) (agonist radioligand)",[5],−3.77%
same,"% inhibition, AR (h) (agonist radioligand)",[6],4.241%
same,"% inhibition, M1 (h) (antagonist radioligand)",[7],3.129%
same,"% inhibition, M3 (h) (antagonist radioligand)",[8],2.273%
same,"% inhibition, CB1 (h) (agonist radioligand)",[9],1.857%
same,"% inhibition, acetylcholinesterase (h)",[10],32.9861%
same,"% inhibition, COX1 (h)",[11],30.3185%
same,"% inhibition, norepinephrine transporter (h) (antagonist radioligand)",[12],−6.471%
same,"% inhibition, H2 (h) (antagonist radioligand)",[13],−40.1709%
same,"% inhibition, ETA (h) (agonist radioligand)",[14],−5.236%
same,"% inhibition, 5-HT2A (h) (agonist radioligand)",[15],−8.881%
same,"% inhibition, CCK1 (CCKA) (h) (agonist radioligand)",[16],−2.038%
same,"% inhibition, COX2(h)",[17],8.111%
same,"% inhibition, H1 (h) (antagonist radioligand)",[18],5.564%
same,"% inhibition, mu (MOP) (h) (agonist radioligand)",[19],6.535%
same,"% inhibition, V1a (h) (agonist radioligand)",[20],−12.5662%
same,"% inhibition, delta (DOP) (h) (agonist radioligand)",[21],2.159%
same,"% inhibition, 5-HT2B (h) (agonist radioligand)",[22],5.374%
same,"% inhibition, N neuronal alpha 4beta 2 (h) (agonist radioligand)",[23],−41.8108%
same,"% inhibition, 5-HT3 (h) (antagonist radioligand)",[24],−4.708%
same,"% inhibition, dopamine transporter (h) (antagonist radioligand)",[25],10.0257%
same,"% inhibition, MAO-A (antagonist radioligand)",[26],−9.13%
same,"% inhibition, kappa (KOP) (agonist radioligand)",[27],27.3513%
same,"% inhibition, BZD (central) (agonist radioligand)",[28],−44.8289%
same,"% inhibition, Ca2+ channel (L, dihydropyridine site) (antagonist radioligand)",[28],6.049%
same,"% inhibition, D2S (h) (agonist radioligand)",[28],−7.807%
same,"% inhibition, NMDA (antagonist radioligand)",[28],12.6124%
same,"% inhibition, Na+ channel (site 2) (antagonist radioligand)",[28],23.6539%
same,"% inhibition, PDE4D2 (h)",[28],14.8003%
same,"% inhibition, alpha 1A (h) (antagonist radioligand)",[28],11.5312%
same,inhibition at 10 µM,CYP1A (printed CYPiA),9.56%
same,inhibition at 10 µM,CYP2B6,-1.32%
same,inhibition at 10 µM,CYP2C19,0.632%
same,inhibition at 10 µM,CYP2C8,3.05%
same,inhibition at 10 µM,CYP2C9,12.8%
same,inhibition at 10 µM,CYP2D6,0%
same,inhibition at 10 µM,"CYP3A; CYP3A inhibition (HLM, midazolam substrate)",25.2%
same,inhibition at 10 µM,"CYP3A; CYP3A inhibition (HLM, testosterone substrate)",6.52%
"Cc1cc(C)nc(N[C@@H]2CCN(c3c(F)cc4c(=O)c(C(=O)O)cn5c4c3OC[C@@H]5C)C2)n1 [KSN-BL7, (S)-10-((R)-3-((4,6-dimethylpyrimidin-2-yl)amino)pyrrolidin-1-yl)-9-fluoro-3-methyl-7-oxo-2,3-dihydro-7H-[1,4]oxazino[2,3,4-ij]quinoline-6-carboxylic acid]","MIC, EC12923","EC12923; ESKAPE panel, Gram-negative, in µg/mL",1
same,MIC,EC12923; Escherichia coli,1 µg/mL

# — US11746116B2, “Antibiotic resistance breakers” (KING'S COLLEGE LONDON, priority 2017, dated 2023)
